Measured values reported in publication PMC5421785, “Citrullination only infrequently impacts peptide binding to HLA class II MHC” (PLoS ONE, 2017).
Like-named read-outs stand apart in the source and are kept apart here. Square brackets hold non-standard residues; d marks the D form. Ends that are not written are not given here. Peptide text beside a SMILES is read from it. Cit = NC(=O)NCCC[C@H](N)C(=O)O

Columns and labels:
HLA-DRB1*01:01 = molecular target: T1, HLA-DRB1*01:01 (Homo sapiens, UniProt P01903+P01911, A100R/D57E/F55L/F60I/F76Y/I96L/L162R/M171V/P40L/Q125E/R42F/V115G/Y59C); experiment: HLA class II peptide binding, inhibition of radiolabeled peptide binding to purified MHC; settings: for DRB1*01:01 binding capacity, WT/cit ratio: ratio of WT IC50 to Cit IC50
T1 construct: EBV transformed homozygous cell lines were used as sources of MHC molecules; endogenous in cells; host or cells: EBV transformed homozygous cell lines

HLA-DRB1*04:01 = molecular target: T2, HLA-DRB1*04:01 (Homo sapiens, UniProt P01903+P01911, A100K/A169T/F76Y/I96L/K127E/L162R/M171V/N62H/P40V/Q125Y/R42H/S133A/S149N/S66Y/V115G/V209L/W38E); experiment: as above; settings: for DRB1*04:01 binding capacity, WT/cit ratio: ratio of WT IC50 to Cit IC50
T2 construct: EBV transformed homozygous cell lines were used as sources of MHC molecules; endogenous in cells; host or cells: EBV transformed homozygous cell lines

[1] = citrullinated 15-mer (X), purified MHC, inhibition of radiolabeled peptide binding, dash = IC50 >40,000 nM, read-out: DRB1*01:01 binding capacity, Cit peptide (IC50 nM)
[2] = citrullinated 15-mer (X), purified MHC, inhibition of radiolabeled peptide binding, dash = IC50 >40,000 nM, read-out: DRB1*04:01 binding capacity, Cit peptide (IC50 nM)
[3] = read-out: DRB1*01:01 binding capacity, WT peptide (IC50 nM)
[4] = read-out: DRB1*04:01 binding capacity, WT peptide (IC50 nM)
[5] = citrullinated 15-mer peptide (X = citrulline), purified HLA-DRB1*01:01, read-out: DRB1*01:01 binding capacity, Cit peptide (IC50 nM)
[6] = citrullinated 15-mer peptide (X = citrulline), purified HLA-DRB1*04:01, read-out: DRB1*04:01 binding capacity, Cit peptide (IC50 nM)
[7] = wild-type (unmodified Arg) 15-mer peptide, purified HLA-DRB1*01:01, read-out: DRB1*01:01 binding capacity, WT peptide (IC50 nM)
[8] = wild-type (unmodified Arg) 15-mer peptide, purified HLA-DRB1*04:01, read-out: DRB1*04:01 binding capacity, WT peptide (IC50 nM)
[9] = >1 = citrullination increases binding

| Compound | IC50 (HLA-DRB1*01:01; [1]) | IC50 (HLA-DRB1*04:01; [2]) | IC50 (HLA-DRB1*01:01; [5]) | IC50 (HLA-DRB1*04:01; [6]) | further results |
| --- | --- | --- | --- | --- | --- |
| CC(C)C[C@H](NC(=O)[C@H](C)NC(=O)[C@H](CO)NC(=O)CN)C(=O)N[C@@H](CCCNC(N)=O)C(=O)N1CCC[C@H]1C(=O)N[C@@H](CO)C(=O)N[C@H](C(=O)N[C@@H](CO)C(=O)N[C@@H](CCCNC(=N)N)C(=O)N[C@@H](CO)C(=O)N[C@@H](CC(C)C)C(=O)N[C@@H](Cc1ccc(O)cc1)C(=O)N[C@@H](C)C(=O)N[C@@H](CO)C(=O)O)[C@@H](C)O [GSALXPSTSRSLYAS] | 12 nM | 1550 nM | – | – | – |
| CSCC[C@H](NC(=O)[C@H](CCC(=O)O)NC(=O)[C@H](CCC(=O)O)NC(=O)[C@@H](N)CCC(=O)O)C(=O)N[C@@H](CCCNC(=N)N)C(=O)N[C@@H](CCC(=O)O)C(=O)N[C@@H](CC(C)C)C(=O)N[C@@H](CCCNC(N)=O)C(=O)N[C@@H](CCCNC(=N)N)C(=O)N[C@@H](CCC(N)=O)C(=O)N[C@H](C(=O)N[C@@H](CC(=O)O)C(=O)N[C@@H](CCC(N)=O)C(=O)N[C@@H](CC(C)C)C(=O)N[C@H](C(=O)O)[C@@H](C)O)C(C)C [EEEMRELXRQVDQLT] (H-EEEMREL[Cit]RQVDQLT-OH) | 1490 nM | 4740 nM | – | – | – |
| CC(C)C[C@H](NC(=O)[C@H](CO)NC(=O)[C@H](CCCNC(=N)N)NC(=O)[C@H](CO)NC(=O)[C@@H](NC(=O)[C@H](CO)NC(=O)[C@@H]1CCCN1)[C@@H](C)O)C(=O)N[C@@H](Cc1ccc(O)cc1)C(=O)N[C@@H](C)C(=O)N[C@@H](CO)C(=O)N[C@@H](CO)C(=O)N1CCC[C@H]1C(=O)NCC(=O)NCC(=O)N[C@H](C(=O)O)C(C)C [Vimentin 46 WT] | – | – | – | – | IC50 (HLA-DRB1*01:01; [3]): 290 nM; IC50 (HLA-DRB1*04:01; [4]): 1050 nM |
| DVRQQYESVAAKNLQ [Vimentin 271 WT] | – | – | – | – | IC50 (HLA-DRB1*01:01; [3]): 10 nM; IC50 (HLA-DRB1*04:01; [4]): 6370 nM |
| C[C@H](NC(=O)CNC(=O)[C@H](C)NC(=O)[C@@H]1CCCN1C(=O)CNC(=O)[C@@H](NC(=O)[C@H](CCCNC(=N)N)NC(=O)CNC(=O)[C@H](CCCNC(N)=O)NC(=O)[C@@H](N)CCC(=O)O)[C@@H](C)O)C(=O)N[C@@H](C)C(=O)NCC(=O)N[C@@H](C)C(=O)N[C@@H](CCCNC(=N)N)C(=O)NCC(=O)O [EXGRTGPAGAAGARG] (H-E[Cit]GRTGPAGAAGARG-OH) | – | – | 1620 nM | > 40000 nM | – |
| CC[C@H](C)[C@H](NC(=O)[C@@H](NC(=O)[C@H](CCC(N)=O)NC(=O)CNC(=O)[C@H](CC(=O)O)NC(=O)[C@H](CCCNC(N)=O)NC(=O)[C@@H](NC(=O)[C@H](CCC(=O)O)NC(=O)[C@@H](NC(=O)[C@@H](N)[C@@H](C)O)C(C)C)[C@@H](C)O)C(C)C)C(=O)N[C@@H](CC(N)=O)C(=O)N[C@@H](CCC(=O)O)C(=O)N[C@H](C(=O)N[C@@H](CO)C(=O)N[C@@H](CCC(N)=O)C(=O)O)[C@@H](C)O [TVETXDGQVINETSQ] (H-TVET[Cit]DGQVINETSQ-OH) | – | – | 7860 nM | 14300 nM | – |
| CC(C)C[C@H](NC(=O)[C@H](CC(C)C)NC(=O)[C@H](CCCNC(=N)N)NC(=O)[C@@H](NC(=O)CNC(=O)[C@@H]1CCCN1C(=O)[C@@H](NC(=O)[C@H](CO)NC(=O)[C@H](CO)NC(=O)[C@H](CCCNC(=N)N)NC(=O)[C@H](CC(C)C)NC(=O)[C@H](CCCNC(N)=O)NC(=O)[C@@H](NC(=O)[C@H](C)NC(=O)[C@@H](N)CO)C(C)C)C(C)C)C(C)C)C(=O)O [SAVXLRSSVPGVRLL] (H-SAV[Cit]LRSSVPGVRLL-OH) | 19 nM | 1050 nM | – | – | – |
| CSCC[C@H](NC(=O)[C@H](CCC(=O)O)NC(=O)[C@H](CCC(=O)O)NC(=O)[C@H](CCC(=O)O)NC(=O)[C@H](Cc1ccc(O)cc1)NC(=O)[C@H](CC(C)C)NC(=O)[C@H](CC(=O)O)NC(=O)CNC(=O)[C@@H](N)CC(C)C)C(=O)N[C@@H](CCCNC(=N)N)C(=O)N[C@@H](CCC(=O)O)C(=O)N[C@@H](CC(C)C)C(=O)N[C@@H](CCCNC(=N)N)C(=O)N[C@@H](CCCNC(=N)N)C(=O)N[C@@H](CCC(N)=O)C(=O)O [Vimentin 146 WT] | – | – | – | – | IC50 (HLA-DRB1*01:01; [3]): 9380 nM; IC50 (HLA-DRB1*04:01; [4]): 38500 nM |
| CSCC[C@H](NC(=O)[C@@H](NC(=O)CNC(=O)[C@@H](N)CC(C)C)C(C)C)C(=O)N[C@@H](CCC(N)=O)C(=O)NCC(=O)N1CCC[C@H]1C(=O)N[C@@H](CCSC)C(=O)NCC(=O)N1CCC[C@H]1C(=O)N[C@@H](CCSC)C(=O)NCC(=O)N1CCC[C@H]1C(=O)N[C@@H](CCCNC(N)=O)C(=O)NCC(=O)O [LGVMQGPMGPMGPXG] (H-LGVMQGPMGPMGP[Cit]G-OH) | – | – | 220 nM | > 40000 nM | – |
| CC(C)C[C@H](NC(=O)[C@H](CCC(N)=O)NC(=O)[C@H](CC(=O)O)NC(=O)[C@@H](N)C(C)C)C(=O)N[C@H](C(=O)N[C@@H](CC(N)=O)C(=O)N[C@@H](CC(=O)O)C(=O)N[C@@H](CCCCN)C(=O)N[C@@H](C)C(=O)N[C@@H](CCCNC(=N)N)C(=O)N[C@H](C(=O)N[C@@H](CCC(=O)O)C(=O)N[C@H](C(=O)N[C@@H](CCC(=O)O)C(=O)N[C@@H](CCCNC(N)=O)C(=O)O)C(C)C)C(C)C)[C@@H](C)O [VDQLTNDKARVEVEX] (H-VDQLTNDKARVEVE[Cit]-OH) | 7420 nM | > 40000 nM | – | – | – |
| VLLTLLVAAVLRCQG [Collagen 11 WT] | – | – | – | – | IC50 (HLA-DRB1*01:01; [7]): 148 nM; IC50 (HLA-DRB1*04:01; [8]): > 40000 nM |
| CC[C@H](C)[C@H](NC(=O)CNC(=O)[C@H](CCCNC(=N)N)NC(=O)[C@H](CCC(N)=O)NC(=O)CNC(=O)[C@H](C)NC(=O)[C@@H](N)CC(C)C)C(=O)N[C@H](C(=O)NCC(=O)N[C@@H](CC(C)C)C(=O)N1CCC[C@H]1C(=O)NCC(=O)N[C@@H](CCC(N)=O)C(=O)N[C@@H](CCCNC(N)=O)C(=O)NCC(=O)O)C(C)C [LAGQRGIVGLPGQXG] (H-LAGQRGIVGLPGQ[Cit]G-OH) | – | – | 1.3 nM | 5040 nM | – |
| CSCC[C@H](NC(=O)[C@H](CCC(=O)O)NC(=O)[C@H](CCC(=O)O)NC(=O)[C@H](CCC(=O)O)NC(=O)[C@H](Cc1ccc(O)cc1)NC(=O)[C@H](CC(C)C)NC(=O)[C@H](CC(=O)O)NC(=O)CNC(=O)[C@H](CC(C)C)NC(=O)[C@H](CCCNC(N)=O)NC(=O)[C@H](CO)NC(=O)[C@H](CCCCN)NC(=O)CNC(=O)[C@@H](N)CCC(N)=O)C(=O)N[C@@H](CCCNC(=N)N)C(=O)O [QGKSXLGDLYEEEMR] (H-QGKS[Cit]LGDLYEEEMR-OH; N-terminus and C-terminus assumed) | > 40000 nM | > 40000 nM | – | – | DRB1*01:01 binding capacity, WT/cit ratio (HLA-DRB1*01:01): 0.7; DRB1*04:01 binding capacity, WT/cit ratio (HLA-DRB1*04:01): 1.0 |
| CC(C)C[C@H](NC(=O)[C@H](CC(N)=O)NC(=O)[C@H](CC(=O)O)NC(=O)[C@H](CCCNC(=N)N)NC(=O)[C@H](CCC(=O)O)NC(=O)[C@@H](NC(=O)[C@H](CCC(=O)O)NC(=O)[C@@H](NC(=O)[C@H](CCCNC(N)=O)NC(=O)[C@H](C)NC(=O)[C@H](CCCCN)NC(=O)[C@H](CC(=O)O)NC(=O)[C@@H](N)CC(N)=O)C(C)C)C(C)C)C(=O)N[C@@H](C)C(=O)N[C@@H](CCC(=O)O)C(=O)O [NDKAXVEVERDNLAE] (H-NDKA[Cit]VEVERDNLAE-OH) | 1070 nM | 905 nM | – | – | – |
| CC(C)C[C@H](NC(=O)[C@@H](NC(=O)[C@H](CC(N)=O)NC(=O)[C@H](CCC(=O)O)NC(=O)[C@H](C)NC(=O)[C@H](CCC(=O)O)NC(=O)[C@H](CCC(=O)O)NC(=O)[C@@H](N)CCCNC(N)=O)[C@@H](C)O)C(=O)N[C@@H](CCC(N)=O)C(=O)N[C@@H](CO)C(=O)N[C@@H](Cc1ccccc1)C(=O)N[C@@H](CCCNC(=N)N)C(=O)N[C@@H](CCC(N)=O)C(=O)N[C@@H](CC(=O)O)C(=O)N[C@H](C(=O)O)C(C)C [XEEAENTLQSFRQDV] (H-[Cit]EEAENTLQSFRQDV-OH) | 25300 nM | 6330 nM | – | – | – |
| C[C@H](N)C(=O)N[C@@H](CCCNC(N)=O)C(=O)NCC(=O)N[C@@H](C)C(=O)N[C@@H](CCC(N)=O)C(=O)NCC(=O)N1CCC[C@H]1C(=O)N1CCC[C@H]1C(=O)NCC(=O)N[C@@H](C)C(=O)N[C@H](C(=O)NCC(=O)N[C@@H](Cc1ccccc1)C(=O)N1CCC[C@H]1C(=O)NCC(=O)O)[C@@H](C)O [AXGAQGPPGATGFPG] (H-A[Cit]GAQGPPGATGFPG-OH; N-terminus and C-terminus assumed) | – | – | > 40000 nM | > 40000 nM | DRB1*01:01 binding capacity, WT/cit ratio (HLA-DRB1*01:01; [9]): 0.7; DRB1*04:01 binding capacity, WT/cit ratio (HLA-DRB1*04:01; [9]): 1.0 |
| CC(C)C[C@H](NC(=O)CNC(=O)[C@H](C)NC(=O)[C@H](Cc1ccccc1)NC(=O)[C@H](C)NC(=O)[C@@H](N)CO)C(=O)NCC(=O)N1CCC[C@H]1C(=O)N[C@@H](CCCNC(N)=O)C(=O)N[C@@H](CCC(=O)O)C(=O)N[C@@H](CCCCN)C(=O)NCC(=O)N1CCC[C@H]1C(=O)N[C@@H](CC(=O)O)C(=O)N1CCC[C@H]1C(=O)O [SAFAGLGPXEKGPDP] (H-SAFAGLGP[Cit]EKGPDP-OH) | – | – | 35 nM | 6400 nM | – |
| THSKRTLLIKTVETR [Vimentin 436 WT] | – | – | – | – | IC50 (HLA-DRB1*01:01; [7]): 109 nM; IC50 (HLA-DRB1*04:01; [8]): 6220 nM |
